Structures are written as SMILES.

This test addresses T1, catechol-O-methyltransferase (COMT) (Homo sapiens, UniProt P21964).
T1 construct: M51A variant) was expressed in HEK 293F cells
T1 sequence (P21964 52-271 limits assumed): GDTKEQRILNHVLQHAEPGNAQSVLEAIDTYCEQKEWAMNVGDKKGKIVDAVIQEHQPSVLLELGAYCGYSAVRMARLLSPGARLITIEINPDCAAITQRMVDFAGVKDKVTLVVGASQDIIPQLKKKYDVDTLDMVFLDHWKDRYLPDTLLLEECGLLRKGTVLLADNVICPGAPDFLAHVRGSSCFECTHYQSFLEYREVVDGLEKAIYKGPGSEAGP
In words: COMT inhibition assay (HTRF, production of S-adenosyl homocysteine). In kind it is biochemical. Conditions: recombinant human COMT, HTRF SAH production; MB-COMT or S-COMT not stated for Table 1. As to the method: The ability of compounds to inhibit the activity of catechol-O-methyltransferase (COMT) was determined by a homogenous time-resolved fluorescent (HTRF) assay (Lina et al, 2012; kit from CisBio, Codolet, France). This assay measures the production of S-adenosyl homocysteine (SAH) from the methyl donor S-adenosyl methionine. Recombinant human membrane bound COMT (MB-COMT; M51A variant) was expressed in HEK 293F cells using 293Fectin (Life Technologies, Gent, Belgium) and membranes prepared. The membranes were re-suspended in buffer (20 mM Tris/HCl pH 7; 10 mM glycerol; 2 mM MgCl2; 10 mM NaCl), aliquoted and stored at −80° C. Recombinant human soluble COMT(S-COMT), Va1158 variant and a hexa-His tag on the N-terminus, was purified using Ni-NTA chromatography, the His tag removed and stored in buffer as above.
For the human MB-COMT assay, membranes (62 ng/well) were incubated with SAM (20 μM final, CisBio) and dopamine (1.5 μM final; Sigma H8502, Diegem, Belgium) in the presence or absence of varying concentrations (typically 10 concentrations ranging from 10 μM to 0.1 nM) of compound for 40 min at 37° C. in 384-well microtitre plates (10 μl per well final volume). The reaction was terminated by the addition of acylation buffer and the amount of SAH produced determined according to manufacturer's instructions. Specific inhibition as that inhibited by a high concentration of tolcapone (10 μM; synthesised at UCB) and all experiments were validated using a control curve to tolcapone.
The human S-COMT assay was performed as above except that 0.15 ng enzyme/well was incubated with SAM (20 μM final) and dopamine (100 μM final) for 15 min at 37° C. and SAH production determined.
HTRF readings were performed using a Perkin Elmer Envision and results expressed as concentration of SAH produced using a standard curve. Results were analysed using non-linear regression to the 4-parameter logistic equation and pIC50 (−log 10 concentration of drug which inhibits enzyme activity/SAH production by 50%) determined.
On the technique in general: In TR-FRET formats the signal depends on donor and acceptor labels being close together.
`Cc1ccc(S(=O)(=O)c2ccc(O)c3ncccc23)cc1` [Example 1, 5-tosylquinolin-8-ol]: the “Activity range (pIC50, COMT inhibition)” value was “+++ (a pIC50 of above about 7)”.

Regarding `O=S(=O)(c1ccc(F)cc1)c1ccc(O)c2ncccc12` [Example 2, 5-(4-fluorophenyl)sulfonylquinolin-8-ol], the “Activity range (pIC50, COMT inhibition)” value was “+++ (a pIC50 of above about 7)”.

`Cc1ccc(S(=O)(=O)c2ccc(O)c3ncccc23)cc1C` [Example 3, 5-(3,4-dimethylphenyl)sulfonylquinolin-8-ol]: the “Activity range (pIC50, COMT inhibition)” value is given as “+++ (a pIC50 of above about 7)”.

For `Cc1cc(C)cc(S(=O)(=O)c2ccc(O)c3ncccc23)c1` [Example 4, 5-(3,5-dimethylphenyl)sulfonylquinolin-8-ol], the “Activity range (pIC50, COMT inhibition)” value is “+++ (a pIC50 of above about 7)”.

As for `CC(C)(C)c1ccc(S(=O)(=O)c2ccc(O)c3ncccc23)cc1` [Example 5, 5-(4-tert-butylphenyl)sulfonylquinolin-8-ol], the “Activity range (pIC50, COMT inhibition)” value was “+++ (a pIC50 of above about 7)”.

Consider `O=S(=O)(c1cccc(-c2ccccc2)c1)c1ccc(O)c2ncccc12` [Example 6, 5-(3-phenylphenyl)sulfonylquinolin-8-ol], for which the “Activity range (pIC50, COMT inhibition)” value was “+++ (a pIC50 of above about 7)”.

On to `Cc1cccc(S(=O)(=O)c2ccc(O)c3ncccc23)c1` [Example 7, 5-(m-tolylsulfonyl)quinolin-8-ol], for which the “Activity range (pIC50, COMT inhibition)” value is reported as “+++ (a pIC50 of above about 7)”.

For `O=S(=O)(c1cc(Cl)cc(Cl)c1)c1ccc(O)c2ncccc12` [Example 8, 5-(3,5-dichlorophenyl)sulfonylquinolin-8-ol], the “Activity range (pIC50, COMT inhibition)” value is on record as “++ (a pIC50 of from about great than 6 to 7)”.

For the compound `O=S(=O)(c1ccc(Cl)cc1)c1ccc(O)c2ncccc12` [Example 9, 5-(4-chlorophenyl)sulfonylquinolin-8-ol], the “Activity range (pIC50, COMT inhibition)” value is on record as “+++ (a pIC50 of above about 7)”.

For `Cc1ccc(S(=O)(=O)c2ccc(O)c3ncccc23)c(C)c1` [Example 10, 5-(2,4-dimethylphenyl)sulfonylquinolin-8-ol], the “Activity range (pIC50, COMT inhibition)” value is reported as “+++ (a pIC50 of above about 7)”.

Consider `O=S(=O)(c1ccc(C(F)(F)F)cc1)c1ccc(O)c2ncccc12` [Example 11, 5-[4-(trifluoromethyl)phenyl]sulfonylquinolin-8-ol], for which the “Activity range (pIC50, COMT inhibition)” value was “+++ (a pIC50 of above about 7)”.

Take `O=S(=O)(c1ccc2ccccc2c1)c1ccc(O)c2ncccc12` [Example 12, 5-(2-naphthylsulfonyl)quinolin-8-ol]: the “Activity range (pIC50, COMT inhibition)” value is recorded as “+++ (a pIC50 of above about 7)”.

With `O=S(=O)(c1cccc(C(F)(F)F)c1)c1ccc(O)c2ncccc12` [Example 13, 5-[3-(trifluoromethyl)phenyl]sulfonylquinolin-8-ol], the “Activity range (pIC50, COMT inhibition)” value was “+++ (a pIC50 of above about 7)”.

As for `O=S(=O)(c1cccc(Cl)c1)c1ccc(O)c2ncccc12` [Example 14, 5-(3-chlorophenyl)sulfonylquinolin-8-ol], the “Activity range (pIC50, COMT inhibition)” value was “+++ (a pIC50 of above about 7)”.

For the compound `O=S(=O)(c1ccc(Cl)c(Cl)c1)c1ccc(O)c2ncccc12` [Example 15, 5-(3,4-dichlorophenyl)sulfonylquinolin-8-ol], the “Activity range (pIC50, COMT inhibition)” value is reported as “++ (a pIC50 of from about great than 6 to 7)”.

As for `O=S(=O)(c1ccccn1)c1ccc(O)c2ncccc12` [Example 16, 5-(2-pyridylsulfonyl)quinolin-8-ol], the “Activity range (pIC50, COMT inhibition)” value is on record as “+++ (a pIC50 of above about 7)”.

`O=S(=O)(c1ccncc1)c1ccc(O)c2ncccc12` [Example 17, 5-(4-pyridylsulfonyl)quinolin-8-ol]: the “Activity range (pIC50, COMT inhibition)” value is reported as “++ (a pIC50 of from about great than 6 to 7)”.

Turning to `COc1ccc(S(=O)(=O)c2ccc(O)c3ncccc23)cc1` [Example 18, 5-(4-methoxyphenyl)sulfonylquinolin-8-ol], the “Activity range (pIC50, COMT inhibition)” value was “+++ (a pIC50 of above about 7)”.

With `O=S(=O)(c1cccnc1)c1ccc(O)c2ncccc12` [Example 19, 5-(3-pyridylsulfonyl)quinolin-8-ol], the “Activity range (pIC50, COMT inhibition)” value is “++ (a pIC50 of from about great than 6 to 7)”.

Consider `Cc1cc(F)ccc1S(=O)(=O)c1ccc(O)c2ncccc12` [Example 20, 5-(4-fluoro-2-methyl-phenyl)sulfonylquinolin-8-ol], for which the “Activity range (pIC50, COMT inhibition)” value was “+++ (a pIC50 of above about 7)”.

Regarding `O=S(=O)(c1ccccc1C(F)(F)F)c1ccc(O)c2ncccc12` [Example 21, 5-[2-(trifluoromethyl)phenyl]sulfonylquinolin-8-ol], the “Activity range (pIC50, COMT inhibition)” value is reported as “+++ (a pIC50 of above about 7)”.

For `O=S(=O)(c1ccccc1)c1ccc(O)c2ncccc12` [Example 22, 5-(benzenesulfonyl)quinolin-8-ol], the “Activity range (pIC50, COMT inhibition)” value is given as “+++ (a pIC50 of above about 7)”.

In the case of `O=S(=O)(c1cccc(-c2ccncc2)c1)c1ccc(O)c2ncccc12` [Example 23, 5-[3-(4-pyridyl)phenyl]sulfonylquinolin-8-ol], the “Activity range (pIC50, COMT inhibition)” value is reported as “+++ (a pIC50 of above about 7)”.

For `O=S(=O)(c1cccc(-c2ccc(F)c(Cl)c2)c1)c1ccc(O)c2ncccc12` [Example 24, 5-[3-(3-chloro-4-fluoro-phenyl)phenyl]sulfonylquinolin-8-ol], the “Activity range (pIC50, COMT inhibition)” value is recorded as “+++ (a pIC50 of above about 7)”.

As for `O=S(=O)(c1cccc(-c2cccc3ncccc23)c1)c1ccc(O)c2ncccc12` [Example 25, 5-[3-(5-quinolyl)phenyl]sulfonylquinolin-8-ol], the “Activity range (pIC50, COMT inhibition)” value is “+++ (a pIC50 of above about 7)”.

As for `O=S(=O)(c1cccc(-c2cccc3[nH]ncc23)c1)c1ccc(O)c2ncccc12` [Example 26, 5-[3-(1H-indazol-4-yl)phenyl]sulfonylquinolin-8-ol], the “Activity range (pIC50, COMT inhibition)” value is listed as “+++ (a pIC50 of above about 7)”.

As to `Cc1cnccc1S(=O)(=O)c1ccc(O)c2ncccc12` [Example 27, 5-[(3-methyl-4-pyridyl)sulfonyl]quinolin-8-ol], the “Activity range (pIC50, COMT inhibition)” value is on record as “+++ (a pIC50 of above about 7)”.

Consider `O=S(=O)(c1ccc(O)c2ncccc12)c1cccc2c1ncn2Cc1ccccc1Cl` [Example 28, 5-[1-[(2-chlorophenyl)methyl]benzimidazol-4-yl]sulfonylquinolin-8-ol], for which the “Activity range (pIC50, COMT inhibition)” value is recorded as “+++ (a pIC50 of above about 7)”.

Consider `Cc1ccc(CCS(=O)(=O)c2ccc(O)c3ncccc23)cc1` [Example 29, 5-[2-(p-tolyl)ethylsulfonyl]quinolin-8-ol], for which the “Activity range (pIC50, COMT inhibition)” value is on record as “+++ (a pIC50 of above about 7)”.

For the compound `O=S(=O)(c1ccc(O)c2ncccc12)C1CCCCC1` [Example 30, 5-cyclohexylsulfonylquinolin-8-ol], the “Activity range (pIC50, COMT inhibition)” value is “+++ (a pIC50 of above about 7)”.

Turning to `O=S(=O)(c1ccc(O)c2ncccc12)C1CCCC1` [Example 31, 5-cyclopentylsulfonylquinolin-8-ol], the “Activity range (pIC50, COMT inhibition)” value is on record as “+++ (a pIC50 of above about 7)”.

For `Cc1ccc(CS(=O)(=O)c2ccc(O)c3ncccc23)cc1` [Example 32, 5-(p-tolylmethylsulfonyl)quinolin-8-ol], the “Activity range (pIC50, COMT inhibition)” value is given as “++ (a pIC50 of from about great than 6 to 7)”.

In the case of `CCS(=O)(=O)c1ccc(O)c2ncccc12` [Example 33, 5-ethylsulfonylquinolin-8-ol], the “Activity range (pIC50, COMT inhibition)” value is given as “+ (a pIC50 of from about 4.5 to 6)”.

As for `O=S(=O)(c1ccc(O)c2ncccc12)C1CCNCC1` [Example 34, 5-(4-piperidylsulfonyl)quinolin-8-ol], the “Activity range (pIC50, COMT inhibition)” value is on record as “++ (a pIC50 of from about great than 6 to 7)”.

Turning to `O=S(=O)(c1ccc(O)c2ncccc12)C1CCN(Cc2ccc(F)cc2)CC1` [Example 35, 5-[[1-[(4-fluorophenyl)methyl]-4-piperidyl]sulfonyl]quinolin-8-ol], the “Activity range (pIC50, COMT inhibition)” value is reported as “++ (a pIC50 of from about great than 6 to 7)”.

On to `O=S(=O)(c1ccc(O)c2ncccc12)C1CCN(c2ccc(F)cc2)CC1` [Example 37, 5-[[1-(4-fluorophenyl)-4-piperidyl]sulfonyl]quinolin-8-ol], for which the “Activity range (pIC50, COMT inhibition)” value is recorded as “++ (a pIC50 of from about great than 6 to 7)”.

Turning to `O=S(=O)(c1ccc(O)c2ncccc12)C1CCN(Cc2cccc(Cl)c2Cl)CC1` [Example 38, 5-[[1-[(2,3-dichlorophenyl)methyl]-4-piperidyl]sulfonyl]quinolin-8-ol], the “Activity range (pIC50, COMT inhibition)” value is recorded as “++ (a pIC50 of from about great than 6 to 7)”.

Values taken from US10035799B2, “COMT inhibiting methods and compositions” (Lieber Institute for Brain Development, priority 2015, dated 2018).
